Assay [1] deals with T1, GRK2 (Homo sapiens (Human), UniProt P25098). As to the kind of experiment: GRK2 kinetic assay (phosphorylation of bROS or tubulin, phosphorimaging). The class given is biochemical. Particulars: 50 nM GRK, 5 μM ATP, 5 min reaction. The procedure: The low salt concentration and DDM were used to maximize GRK activity and disrupt small molecule aggregates from forming, respectively. […] Data was analyzed and inhibition curves were fit via GraphPad Prism.

In another assay the target is ROCK1 (Homo sapiens (Human), UniProt Q13464). As to the kind of experiment: Rho-associated coiled-coil kinase (ROCK) assay, ADP-Glo system. The class given is biochemical. Particulars: 0.1 μg ROCK1, 1 μg S6K substrate, 100 μM ATP, 60 min. The procedure:
Rho-associated coiled-coil kinase (ROCK) assays were performed with the ADP-Glo system using 0.1 μg ROCK1 and 1 μg S6K substrate, and 100 μM ATP for 60 min prior to addition of ADP-GLO Reagent, and allowed to incubate for an additional 40 min prior to the addition of the Kinase Detection Reagent and imaging on a PHERASTAR system.
In general terms: In ADP-Glo the light output rises with the ADP produced.

In assay [2] the target is T1, GRK2. Particulars: literature (Setyawan et al. 1999; Tesmer et al. 2010); cited from earlier work.

T1 sequence (P25098 whole entry, species assumed): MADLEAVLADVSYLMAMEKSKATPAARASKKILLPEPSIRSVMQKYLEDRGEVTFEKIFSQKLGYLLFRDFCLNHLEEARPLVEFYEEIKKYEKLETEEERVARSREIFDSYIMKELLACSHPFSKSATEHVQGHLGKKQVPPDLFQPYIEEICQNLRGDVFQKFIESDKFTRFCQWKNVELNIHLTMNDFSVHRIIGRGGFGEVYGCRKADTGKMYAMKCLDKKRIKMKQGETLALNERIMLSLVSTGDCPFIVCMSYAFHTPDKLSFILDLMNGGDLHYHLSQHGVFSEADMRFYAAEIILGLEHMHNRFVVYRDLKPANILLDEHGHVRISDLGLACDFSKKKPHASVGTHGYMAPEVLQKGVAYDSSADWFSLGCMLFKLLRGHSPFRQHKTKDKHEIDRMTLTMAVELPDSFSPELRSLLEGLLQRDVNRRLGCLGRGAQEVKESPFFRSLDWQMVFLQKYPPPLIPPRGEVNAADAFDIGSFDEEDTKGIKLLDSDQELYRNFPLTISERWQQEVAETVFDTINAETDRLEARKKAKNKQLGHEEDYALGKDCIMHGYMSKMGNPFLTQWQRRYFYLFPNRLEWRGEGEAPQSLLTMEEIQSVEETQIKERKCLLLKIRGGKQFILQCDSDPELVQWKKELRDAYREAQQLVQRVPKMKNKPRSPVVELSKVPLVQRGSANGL
ROCK1, sequence (Q13464 whole entry, species assumed): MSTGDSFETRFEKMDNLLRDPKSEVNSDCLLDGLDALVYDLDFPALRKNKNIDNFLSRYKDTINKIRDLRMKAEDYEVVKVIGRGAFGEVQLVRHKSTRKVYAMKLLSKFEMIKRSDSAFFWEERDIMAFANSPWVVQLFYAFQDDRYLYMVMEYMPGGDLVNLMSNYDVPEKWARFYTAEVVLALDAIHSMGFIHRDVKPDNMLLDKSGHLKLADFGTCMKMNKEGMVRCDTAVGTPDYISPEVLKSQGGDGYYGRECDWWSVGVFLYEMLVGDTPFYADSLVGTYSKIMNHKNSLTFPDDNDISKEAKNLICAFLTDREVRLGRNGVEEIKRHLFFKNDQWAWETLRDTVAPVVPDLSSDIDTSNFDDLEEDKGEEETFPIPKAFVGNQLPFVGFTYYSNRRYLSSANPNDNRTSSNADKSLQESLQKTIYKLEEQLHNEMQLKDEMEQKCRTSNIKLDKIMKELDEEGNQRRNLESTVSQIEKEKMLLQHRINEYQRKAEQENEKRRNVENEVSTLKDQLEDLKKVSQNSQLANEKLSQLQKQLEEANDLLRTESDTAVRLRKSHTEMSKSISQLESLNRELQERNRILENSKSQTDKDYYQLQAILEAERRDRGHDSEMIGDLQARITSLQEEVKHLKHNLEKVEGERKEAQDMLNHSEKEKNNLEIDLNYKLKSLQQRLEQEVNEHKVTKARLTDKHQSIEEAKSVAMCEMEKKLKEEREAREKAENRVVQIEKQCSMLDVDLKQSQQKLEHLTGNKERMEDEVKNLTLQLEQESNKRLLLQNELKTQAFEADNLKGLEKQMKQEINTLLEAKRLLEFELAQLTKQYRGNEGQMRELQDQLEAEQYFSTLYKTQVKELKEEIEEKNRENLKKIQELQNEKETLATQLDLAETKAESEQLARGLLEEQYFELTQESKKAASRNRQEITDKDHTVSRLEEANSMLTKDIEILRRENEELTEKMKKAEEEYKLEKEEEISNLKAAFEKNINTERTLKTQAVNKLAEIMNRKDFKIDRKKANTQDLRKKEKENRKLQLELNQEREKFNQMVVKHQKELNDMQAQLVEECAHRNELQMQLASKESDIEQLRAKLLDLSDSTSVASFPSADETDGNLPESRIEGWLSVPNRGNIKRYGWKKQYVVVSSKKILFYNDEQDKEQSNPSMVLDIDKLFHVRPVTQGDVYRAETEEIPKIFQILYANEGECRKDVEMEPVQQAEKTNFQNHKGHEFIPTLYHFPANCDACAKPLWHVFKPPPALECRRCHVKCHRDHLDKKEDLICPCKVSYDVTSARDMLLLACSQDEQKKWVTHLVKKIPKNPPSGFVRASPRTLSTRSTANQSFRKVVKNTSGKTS

As for `CC1=C(C(=O)Nc2ccc3[nH]ncc3c2)C(c2ccc(F)c(C(=O)NC3CC4CCC3(C)C4(C)C)c2)NC(=O)N1` (stereo not drawn) [Example E25, 4-(4-fluoro-3-((1,7,7-trimethylbicyclo[2.2.1]heptan-2-yl)carbamoyl)phenyl)-N-(1H-indazol-5-yl)-6-methyl-2-oxo-1,2,3,4-tetrahydropyrimidine-5-carboxamide], the midpoint of inhibition at GRK2 [1], the IC50, lay at 5200 nM.
Turning to `CC1=C(C(=O)Nc2ccc3[nH]ncc3c2)C(c2ccc(F)c(CCC(=O)NCCc3ccccc3)c2)NC(=O)N1` (stereo not drawn) [Example E38, 4-(4-fluoro-3-(3-oxo-3-(phenethylamino)propyl)phenyl)-N-(1H-indazol-5-yl)-6-methyl-2-oxo-1,2,3,4-tetrahydropyrimidine-5-carboxamide], the concentration for half-maximal inhibition (IC50) (as a rule, the concentration needed to halve the response being measured) at GRK2 [1] turned out to be 7000 nM.
Same read-out and setting: to `CC1=C(C(=O)Nc2ccc3[nH]ncc3c2)C(c2ccc(F)c(C(=O)N(C)Cc3cc(C)[nH]n3)c2)NC(=O)N1` (stereo not drawn) [Example E26, 4-(4-fluoro-3-(methyl((5-methyl-1H-pyrazol-3-yl)methyl)carbamoyl)phenyl)-N-(1H-indazol-5-yl)-6-methyl-2-oxo-1,2,3,4-tetrahydropyrimidine-5-carboxamide] belongs 1200 nM.
Still for that read-out and setting: to `CC1=C(C(=O)Nc2ccc3[nH]ncc3c2)C(c2ccc(F)c(CC(=O)N3CCOC(CCO)C3)c2)NC(=O)N1` (stereo not drawn) [Example E31, 4-(4-fluoro-3-(2-(2-(2-hydroxyethyl)morpholino)-2-oxoethyl)phenyl)-N-(1H-indazol-5-yl)-6-methyl-2-oxo-1,2,3,4-tetrahydropyrimidine-5-carboxamide] belongs 1500 nM.
On the same count and under the same terms, to `COC(=O)C1(NC(=O)c2cc(C3NC(=O)NC(C)=C3C(=O)Nc3ccc4[nH]ncc4c3)ccc2F)CCCCC1` (stereo not drawn) [Example E23, methyl 1-(5-(5-((1H-indazol-5-yl)carbamoyl)-6-methyl-2-oxo-1,2,3,4-tetrahydropyrimidin-4-yl)-2-fluorobenzamido)cyclohexanecarboxylate] belongs 820 nM; to `COCc1noc(CNC(=O)c2cc(C3NC(=O)NC(C)=C3C(=O)Nc3ccc4[nH]ncc4c3)ccc2F)n1` (stereo not drawn) [Example E24, 4-(4-fluoro-3-(((3-(methoxymethyl)-1,2,4-oxadiazol-5-yl)methyl)carbamoyl)phenyl)-N-(1H-indazol-5-yl)-6-methyl-2-oxo-1,2,3,4-tetrahydropyrimidine-5-carboxamide], 240 nM; to `COc1ccccc1C(C)NC(=O)c1cc(C2NC(=O)NC(C)=C2C(=O)Nc2ccc3[nH]ncc3c2)ccc1F` (stereo not drawn) [Example E27, 4-(4-fluoro-3-((1-(2-methoxyphenyl)ethyl)carbamoyl)phenyl)-N-(1H-indazol-5-yl)-6-methyl-2-oxo-1,2,3,4-tetrahydropyrimidine-5-carboxamide], 320 nM.
Turning to `CC1=C(C(=O)Nc2ccc3[nH]ncc3c2)C(c2ccc(F)c(C(=O)NCc3nccc4ccccc34)c2)NC(=O)N1` (stereo not drawn) [Example E08, 4-(4-fluoro-3-((isoquinolin-1-ylmethyl)carbamoyl)phenyl)-N-(1H-indazol-5-yl)-6-methyl-2-oxo-1,2,3,4-tetrahydropyrimidine-5-carboxamide], the IC50 against GRK2 [1] came out at 2600 nM; against ROCK1 it was 17 nM.
`CCC(C)N(C)C(=O)c1cc(C2NC(=O)NC(C)=C2C(=O)Nc2ccc3[nH]ncc3c2)ccc1F` (stereo not drawn) [Example E19, 4-(3-(sec-butyl(methyl)carbamoyl)-4-fluorophenyl)-N-(1H-indazol-5-yl)-6-methyl-2-oxo-1,2,3,4-tetrahydropyrimidine-5-carboxamide] returned an IC50 against GRK2 [1] of 51000 nM.
In the case of `CC1=C(C(=O)Nc2ccc3[nH]ncc3c2)C(c2ccc(F)c(CC(=O)N(C)Cc3nc(C)c[nH]3)c2)NC(=O)N1` (stereo not drawn) [Example E34, 4-(4-fluoro-3-(2-(methyl((4-methyl-1H-imidazol-2-yl)methyl)amino)-2-oxoethyl)phenyl)-N-(1H-indazol-5-yl)-6-methyl-2-oxo-1,2,3,4-tetrahydropyrimidine-5-carboxamide], the midpoint of inhibition against GRK2 [1], the IC50, lay at 1200 nM.
On GRK2 [1], `CC1=C(C(=O)Nc2ccc3[nH]ncc3c2)C(c2ccc(F)c(C(=O)N(C)CC3CCCCO3)c2)NC(=O)N1` (stereo not drawn) [Example E21, 4-(4-fluoro-3-(methyl((tetrahydro-2H-pyran-2-yl)methyl)carbamoyl)phenyl)-N-(1H-indazol-5-yl)-6-methyl-2-oxo-1,2,3,4-tetrahydropyrimidine-5-carboxamide] came in with a half-maximal inhibitory concentration (IC50) of 14600 nM.
Regarding `O=C(N[C@@H]1CNCCC[C@H]1OC(=O)c1cc(O)c(C(=O)c2c(O)cccc2C(=O)O)c(O)c1)c1ccc(O)cc1` [balanol], the GRK2 inhibition potency result on GRK2 [2] is “low nanomolar range”.
Compound `CC1=C(C(=O)Nc2ccc3[nH]ncc3c2)C(c2ccc(F)c(C(=O)NCC(C)N3CCCCCC3)c2)NC(=O)N1` (stereo not drawn) [Example E20, 4-(3-((2-(azepan-1-yl)propyl)carbamoyl)-4-fluorophenyl)-N-(1H-indazol-5-yl)-6-methyl-2-oxo-1,2,3,4-tetrahydropyrimidine-5-carboxamide] returned a half-maximal inhibitory concentration (IC50) against GRK2 [1] of 740 nM.
As to `CC1=C(C(=O)Nc2ccc3[nH]ncc3c2)C(c2ccc(F)c(CC(=O)N(CCO)Cc3ccco3)c2)NC(=O)N1` (stereo not drawn) [Example E32, 4-(4-fluoro-3-(2-((furan-2-ylmethyl)(2-hydroxyethyl)amino)-2-oxoethyl)phenyl)-N-(1H-indazol-5-yl)-6-methyl-2-oxo-1,2,3,4-tetrahydropyrimidine-5-carboxamide], the IC50 on GRK2 [1] came out at 500 nM.
`CC1=C(C(=O)Nc2ccc3[nH]ncc3c2)C(c2ccc(F)c(CC(=O)NCC3CCN(C4CC4)CC3)c2)NC(=O)N1` (stereo not drawn) [Example E33, 4-(3-(2-(((1-cyclopropylpiperidin-4-yl)methyl)amino)-2-oxoethyl)-4-fluorophenyl)-N-(1H-indazol-5-yl)-6-methyl-2-oxo-1,2,3,4-tetrahydropyrimidine-5-carboxamide] yielded an IC50 at GRK2 [1] of 680 nM.
Turning to `C#CCN(Cc1ccco1)C(=O)Cc1cc(C2NC(=O)NC(C)=C2C(=O)Nc2ccc3[nH]ncc3c2)ccc1F` (stereo not drawn) [Example E35, 4-(4-fluoro-3-(2-((furan-2-ylmethyl)(prop-2-yn-1-yl)amino)-2-oxoethyl)phenyl)-N-(1H-indazol-5-yl)-6-methyl-2-oxo-1,2,3,4-tetrahydropyrimidine-5-carboxamide], 960 nM corresponded to half-maximal inhibition against GRK2 [1] (IC50).
As to `CC1=C(C(=O)Nc2ccc3[nH]ncc3c2)C(c2ccc(F)c(C(=O)NCc3c(F)cccc3F)c2)NC(=O)N1` (stereo not drawn) [Example E02, 4-(3-((2,6-difluorobenzyl)carbamoyl)-4-fluorophenyl)-N-(1H-indazol-5-yl)-6-methyl-2-oxo-1,2,3,4-tetrahydropyrimidine-5-carboxamide], the IC50 turned out to be 120 nM on GRK2 [1] and 61 nM against ROCK1.
For the compound `C#CCN(CC(C)C)C(=O)Cc1cc(C2NC(=O)NC(C)=C2C(=O)Nc2ccc3[nH]ncc3c2)ccc1F` (stereo not drawn) [Example E36, 4-(4-fluoro-3-(2-(isobutyl(prop-2-yn-1-yl)amino)-2-oxoethyl)phenyl)-N-(1H-indazol-5-yl)-6-methyl-2-oxo-1,2,3,4-tetrahydropyrimidine-5-carboxamide], at GRK2 [1], the IC50 was found to be 2600 nM.
At GRK2 [1], `CC1=C(C(=O)Nc2ccc3[nH]ncc3c2)C(c2ccc(F)c(CCC(=O)NCc3ncc(C)o3)c2)NC(=O)N1` (stereo not drawn) [Example E37, 4-(4-fluoro-3-(3-(((5-methyloxazol-2-yl)methyl)amino)-3-oxopropyl)phenyl)-N-(1H-indazol-5-yl)-6-methyl-2-oxo-1,2,3,4-tetrahydropyrimidine-5-carboxamide] displayed a half-inhibitory concentration (IC50) of 4000 nM.

(Values after patent US10023564B2, “G protein-coupled receptor kinase 2 inhibitors and methods for use of the same” (THE REGENTS OF THE UNIVERSITY OF MICHIGAN, priority 2014, dated 2018).)
